Assay results from patent US20260201008A1, “SECRETIN-DERIVED GLP1R SELECTIVE AGONISTS” (GUBRA A/S, priority 2023, published 2026).
≈ marks a conversion by molar mass, not a printed value. Like-named read-outs stand apart in the source and are kept apart here. Numbered stars: 1 amine (or outer) side, 2 acyl side, 3 side chain; on linkers, the order of the positions; unused ones are H or OH. Square brackets hold non-standard residues; d marks the D form. Side chains are listed from the residue outwards. Ends that are not written are not given here. Peptide text beside a SMILES is read from it. * marks the point of attachment. C20 diacid = O=C(O)CCCCCCCCCCCCCCCCCCC(=O)*; γGlu = O=C(O)[C@H](CCC(=O)[*:2])N[*:1]; AEEA = NCCOCCOCC(=O)O; Aib = CC(C)(N)C(=O)O

Legend:
[1] = Thioflavin T fibril formation assay of purified peptides; type: physicochemical; conditions: 267 μM, phosphate buffer pH 7.0, 96 h at 40° C.
Experimental: Thioflavin T fibril formation assay: Peptides are dissolved as 267 μM in 50 mM phosphate buffer pH 7.0 for 2 h at room temperature on a rocking table. The samples were then divided into three replicates of 80 μl/well and mixed with 2 μl/well Thioflavin T (ThT) to a final concentration of 4 μM ThT in a black 384 well microplate with a clear bottom (Greiner #781096). The plate is inserted in a CLARIOstar Plus microplate reader (BMG Labtech) and fibril formation is measured as an increase in fluorescence emission at 480 nm (excitation at 450 nm) during 96 h at 40° C. with cycles of 5 min rest and 5 min linear shaking at 700 rpm.

[2] = Solubility of purified peptides; type: physicochemical; conditions: 100 mM phosphate buffer, target pH 7.0, target approximately 10 mg/mL
Experimental: Solubility was tested in the following vehicles: 100 mM phosphate buffer facilitating a target pH of 7.0. Samples were directly dissolved in Mini-UniPrep Syringeless Filter 0.45 μm unit (Whatman). For the desired concentration, such as a concentration of approximately 10 mg/mL, 1050 nmol of peptide was dissolved in 400 μL vehicle. Samples were incubated for at least 1 h at room temperature on a rocking table. The pH was measured and adjusted. Samples were left on the rocking table for an additional hour before a second pH measurement and adjustment. Visual inspection was performed and noted before the filter was pushed. The concentration of peptide in the filtrate was determined using CAD (Charged Aerosol Detection), double determination was done for each sample. The measured concentration was reported in μM. Furthermore, the pH of the filtrate was measured and reported. Peptides with a measured concentration within +/−20% of target concentration are considered fully soluble.

GLP1R = GLP1R (Homo sapiens, UniProt P43220); test: hGLP1R potency, cAMP accumulation in CHO-K1 cells stably overexpressing hGLP1R; type: cell-based; design: host or cells: CHO-K1; conditions: for Selectivity: SCTR EC50/GLP1R EC50 ratio
Outline: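 In the presence of 0.5 mM IBMX, compounds stimulated the cells for 30 minutes at room temperature. Accumulated cAMP was then detected by TR-FRET, with EC50 values fitted by variable-slope nonlinear regression.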

SCTR = SCTR (Homo sapiens, UniProt P47872); test: hSCTR potency, cAMP accumulation in CHO-K1 cells stably overexpressing hSCTR; type: cell-based; design: alternatively Euroscreen ES-712-AF; FAST-0161L; host or cells: CHO-K1
Outline: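 In this Gs cAMP assay, stably transfected CHO-K1 hSCTR cells were stimulated at room temperature for 30 min in IBMX-containing buffer. Time-resolved FRET gave the signal. Replicates were increased when the top concentration changed or EC50 values differed 5-fold.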

[3] = target: human secretin receptor (hSCTR) (human, UniProt P47872 23-440); test: cell-based or functional assay
[4] = Table 2, extended 30 amino acid peptides
[5] = Table 2, extended 30 amino acid peptides, read-out: PEC50 hGLPR1 (converted)
[6] = Table 2, extended 30 amino acid peptides, read-out: pEC50 hSCTR (converted)

SCTR, sequence (P47872 23-440): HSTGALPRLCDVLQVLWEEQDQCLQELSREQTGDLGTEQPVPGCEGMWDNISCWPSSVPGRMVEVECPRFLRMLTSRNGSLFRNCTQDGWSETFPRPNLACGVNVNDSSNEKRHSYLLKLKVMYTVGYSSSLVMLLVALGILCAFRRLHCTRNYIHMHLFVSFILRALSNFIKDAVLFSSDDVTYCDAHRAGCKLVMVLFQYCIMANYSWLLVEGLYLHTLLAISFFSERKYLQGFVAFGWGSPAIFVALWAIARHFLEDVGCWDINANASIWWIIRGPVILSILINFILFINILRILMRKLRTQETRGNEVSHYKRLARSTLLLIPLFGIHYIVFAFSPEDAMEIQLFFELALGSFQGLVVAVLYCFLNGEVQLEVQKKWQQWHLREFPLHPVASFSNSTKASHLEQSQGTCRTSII
GLP1R, sequence (P43220 24-463): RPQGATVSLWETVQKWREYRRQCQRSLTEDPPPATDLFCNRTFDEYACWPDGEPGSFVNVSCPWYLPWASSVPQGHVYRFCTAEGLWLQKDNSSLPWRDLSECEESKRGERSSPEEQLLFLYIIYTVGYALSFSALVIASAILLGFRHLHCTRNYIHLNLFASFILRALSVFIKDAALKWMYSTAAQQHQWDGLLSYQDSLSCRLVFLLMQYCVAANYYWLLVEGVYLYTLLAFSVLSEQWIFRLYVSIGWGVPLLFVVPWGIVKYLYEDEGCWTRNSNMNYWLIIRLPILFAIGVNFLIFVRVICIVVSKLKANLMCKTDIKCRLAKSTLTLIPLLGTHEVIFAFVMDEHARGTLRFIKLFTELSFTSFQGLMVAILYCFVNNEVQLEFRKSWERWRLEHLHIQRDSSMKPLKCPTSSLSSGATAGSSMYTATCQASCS
human secretin receptor (hSCTR), sequence (P47872 23-440): as the sequence (P47872 23-440) above

**Q.** Which Fibril formation [1] does the source give for `CC(C)C[C@H](NC(=O)[C@H](Cc1ccccc1)NC(=O)[C@H](CCCNC(=N)N)NC(=O)[C@H](CCC(N)=O)NC(=O)[C@H](CC(C)C)NC(=O)C(C)(C)NC(=O)[C@H](C)NC(=O)[C@H](CCC(=O)O)NC(=O)[C@H](CCC(=O)O)NC(=O)[C@H](CCCCNC(=O)COCCOCCNC(=O)COCCOCCNC(=O)CC[C@H](NC(=O)CCCCCCCCCCCCCCCCCCC(=O)O)C(=O)O)NC(=O)[C@H](CC(C)C)NC(=O)[C@H](Cc1ccc(O)cc1)NC(=O)[C@H](CO)NC(=O)[C@@H](NC(=O)[C@H](CC(=O)O)NC(=O)[C@H](CO)NC(=O)[C@@H](NC(=O)[C@H](Cc1ccccc1)NC(=O)[C@@H](NC(=O)CNC(=O)[C@H](CCC(=O)O)NC(=O)C(C)(C)NC(=O)[C@@H](N)Cc1c[nH]cn1)[C@@H](C)O)[C@@H](C)O)C(C)C)C(=O)N[C@@H](CCC(=O)O)C(=O)N[C@@H](Cc1c[nH]cn1)C(=O)N[C@@H](CC(C)C)C(=O)N[C@H](C(N)=O)C(C)C` [compound 203] (H-H[Aib]EGTFTSDVSYLK([AEEA-AEEA-γGlu-C20 diacid])EEA[Aib]LQRFLEHLV-NH2) here?
**A.** No

**Q.** And the solubility [2]?
**A.** 9800 µg/mL (≈ 2540 µM)

**Q.** And the Selectivity (GLP1R; purified peptides)?
**A.** 11176

**Q.** And the EC50 (GLP1R; cAMP accumulation, CHO-K1 cells stably overexpressing hGLP1R, read-out: hGLP1R potency (pEC50) (converted))?
**A.** 0.02 nM

**Q.** What about the “SCTR EC50/GLP1R EC50 ratio” value (GLP1R; selectivity ratio, hSCTR vs hGLP1R, cAMP accumulation in CHO-K1 cells) of the same molecule?
**A.** 10000

**Q.** What about the EC50 (SCTR; cAMP accumulation, CHO-K1 cells stably overexpressing hSCTR, read-out: hSCTR potency (pEC50) (converted)) of the same molecule?
**A.** 200 nM

**Q.** And the EC50 (SCTR; purified peptides, read-out: hSCTR pEC50 (converted))?
**A.** 200 nM

**Q.** With `CC(C)C[C@H](NC(=O)[C@H](CC(C)C)NC(=O)[C@H](CCCNC(=N)N)NC(=O)[C@H](CO)NC(=O)[C@@H](NC(=O)[C@H](CC(=O)O)NC(=O)[C@H](CO)NC(=O)[C@@H](NC(=O)[C@H](Cc1ccccc1)NC(=O)[C@@H](NC(=O)CNC(=O)[C@H](CCC(=O)O)NC(=O)C(C)(C)NC(=O)[C@@H](N)Cc1c[nH]cn1)[C@@H](C)O)[C@@H](C)O)C(C)C)C(=O)N[C@@H](CCC(=O)O)C(=O)N[C@@H](CCC(=O)O)C(=O)N[C@@H](C)C(=O)NC(C)(C)C(=O)N[C@@H](CC(C)C)C(=O)N[C@@H](CCC(N)=O)C(=O)N[C@@H](CCCNC(=N)N)C(=O)N[C@@H](Cc1ccccc1)C(=O)N[C@@H](CC(C)C)C(=O)N[C@@H](CCC(=O)O)C(=O)N[C@@H](CCCCNC(=O)COCCOCCNC(=O)COCCOCCNC(=O)CC[C@H](NC(=O)CCCCCCCCCCCCCCCCCCC(=O)O)C(=O)O)C(=O)N[C@@H](CC(C)C)C(=O)N[C@H](C(=O)N[C@@H](CCC(=O)O)C(=O)N[C@@H](C)C(=O)N[C@@H](C)C(N)=O)C(C)C` [compound 212] (H-H[Aib]EGTFTSDVSRLLEEA[Aib]LQRFLEK([AEEA-AEEA-γGlu-C20 diacid])LVEAA-NH2) as the molecule, how does the Fibril formation [1] read?
**A.** No

**Q.** And the solubility [2]?
**A.** 8400 µg/mL (≈ 2050 µM)

**Q.** And the Selectivity (GLP1R; [4])?
**A.** 2864

**Q.** And the Selectivity (GLP1R; purified peptides)?
**A.** 2857

**Q.** What about the EC50 (GLP1R; [5]) of the same molecule?
**A.** 0.02 nM

**Q.** What about the EC50 (SCTR; [6]) of the same molecule?
**A.** 63.1 nM

**Q.** What does the source list for `CC(C)C[C@H](NC(=O)[C@H](Cc1ccccc1)NC(=O)[C@H](CCCNC(=N)N)NC(=O)[C@H](CCC(N)=O)NC(=O)[C@H](CC(C)C)NC(=O)C(C)(C)NC(=O)[C@H](C)NC(=O)[C@H](CCC(=O)O)NC(=O)[C@H](CCC(=O)O)NC(=O)[C@H](CCCCNC(=O)COCCOCCNC(=O)COCCOCCNC(=O)CC[C@H](NC(=O)CCCCCCCCCCCCCCCCCCC(=O)O)C(=O)O)NC(=O)[C@H](CC(C)C)NC(=O)[C@H](CCC(=O)O)NC(=O)[C@H](CO)NC(=O)[C@@H](NC(=O)[C@H](CC(=O)O)NC(=O)[C@H](CO)NC(=O)[C@@H](NC(=O)[C@H](Cc1ccccc1)NC(=O)[C@@H](NC(=O)CNC(=O)[C@H](CCC(=O)O)NC(=O)C(C)(C)NC(=O)[C@@H](N)Cc1c[nH]cn1)[C@@H](C)O)[C@@H](C)O)C(C)C)C(=O)N[C@@H](CCC(=O)O)C(=O)N[C@@H](Cc1c[nH]cn1)C(=O)N[C@@H](CC(C)C)C(=O)N[C@H](C(=O)N[C@@H](CCC(=O)O)C(=O)N[C@@H](C)C(=O)N[C@@H](C)C(N)=O)C(C)C` [compound 210] (H-H[Aib]EGTFTSDVSELK([AEEA-AEEA-γGlu-C20 diacid])EEA[Aib]LQRFLEHLVEAA-NH2)?
**A.** Fibril formation [1]: No; solubility [2]: 8300 µg/mL (≈ 2020 µM)

**Q.** With `CC(C)C[C@H](NC(=O)[C@H](CC(C)C)NC(=O)[C@H](Cc1ccc(O)cc1)NC(=O)[C@H](CO)NC(=O)[C@@H](NC(=O)[C@H](CC(=O)O)NC(=O)[C@H](CO)NC(=O)[C@@H](NC(=O)[C@H](Cc1ccccc1)NC(=O)[C@@H](NC(=O)CNC(=O)[C@H](CCC(=O)O)NC(=O)C(C)(C)NC(=O)[C@@H](N)Cc1c[nH]cn1)[C@@H](C)O)[C@@H](C)O)C(C)C)C(=O)N[C@@H](CCC(=O)O)C(=O)N[C@@H](CCC(=O)O)C(=O)N[C@@H](C)C(=O)NC(C)(C)C(=O)N[C@@H](CC(C)C)C(=O)N[C@@H](CCC(N)=O)C(=O)N[C@@H](CCCNC(=N)N)C(=O)N[C@@H](Cc1ccccc1)C(=O)N[C@@H](CC(C)C)C(=O)N[C@@H](CCC(=O)O)C(=O)N[C@@H](CCCCNC(=O)COCCOCCNC(=O)COCCOCCNC(=O)CC[C@H](NC(=O)CCCCCCCCCCCCCCCCCCC(=O)O)C(=O)O)C(=O)N[C@@H](CC(C)C)C(=O)N[C@H](C(=O)N[C@@H](CCC(=O)O)C(=O)N[C@@H](C)C(=O)N[C@@H](C)C(N)=O)C(C)C` [compound 213] (H-H[Aib]EGTFTSDVSYLLEEA[Aib]LQRFLEK([AEEA-AEEA-γGlu-C20 diacid])LVEAA-NH2) as the molecule, how does the Fibril formation [1] read?
**A.** No

**Q.** And the solubility [2]?
**A.** 8200 µg/mL (≈ 2000 µM)

**Q.** And the Selectivity (GLP1R; [4])?
**A.** 54706

**Q.** What about the Selectivity (GLP1R; purified peptides) of the same molecule?
**A.** 63571

**Q.** And the EC50 (GLP1R; [5])?
**A.** 0.0158 nM

**Q.** And the EC50 (SCTR; [6])?
**A.** 1000 nM

**Q.** Which Fibril formation [1] does the source give for `CC(C)C[C@H](NC(=O)[C@H](Cc1ccccc1)NC(=O)[C@H](CCCNC(=N)N)NC(=O)[C@H](CCC(N)=O)NC(=O)[C@H](CC(C)C)NC(=O)C(C)(C)NC(=O)[C@H](C)NC(=O)[C@H](CCC(=O)O)NC(=O)[C@H](CCC(=O)O)NC(=O)[C@H](CCCCNC(=O)COCCOCCNC(=O)COCCOCCNC(=O)CC[C@H](NC(=O)CCCCCCCCCCCCCCCCCCC(=O)O)C(=O)O)NC(=O)[C@H](CC(C)C)NC(=O)[C@H](CCCNC(=N)N)NC(=O)[C@H](CO)NC(=O)[C@@H](NC(=O)[C@H](CC(=O)O)NC(=O)[C@H](CO)NC(=O)[C@@H](NC(=O)[C@H](Cc1ccccc1)NC(=O)[C@@H](NC(=O)CNC(=O)[C@H](CCC(=O)O)NC(=O)C(C)(C)NC(=O)[C@@H](N)Cc1c[nH]cn1)[C@@H](C)O)[C@@H](C)O)C(C)C)C(=O)N[C@@H](CCC(=O)O)C(=O)N[C@@H](Cc1c[nH]cn1)C(=O)N[C@@H](CC(C)C)C(=O)N[C@H](C(=O)N[C@@H](CCC(=O)O)C(=O)N[C@@H](C)C(=O)N[C@@H](C)C(N)=O)C(C)C` [compound 208] (H-H[Aib]EGTFTSDVSRLK([AEEA-AEEA-γGlu-C20 diacid])EEA[Aib]LQRFLEHLVEAA-NH2) here?
**A.** No

**Q.** What about the solubility [2] of the same molecule?
**A.** 9200 µg/mL (≈ 2230 µM)

B1: SEQ ID NO: 219 (peptide)
peptide: H[Aib]EGTFTSDWSRLLEGAALQRFIQWLV-NH2
modifications: N-terminus assumed
SMILES: CC[C@H](C)[C@H](NC(=O)[C@H](Cc1ccccc1)NC(=O)[C@H](CCCNC(=N)N)NC(=O)[C@H](CCC(N)=O)NC(=O)[C@H](CC(C)C)NC(=O)[C@H](C)NC(=O)[C@H](C)NC(=O)CNC(=O)[C@H](CCC(=O)O)NC(=O)[C@H](CC(C)C)NC(=O)[C@H](CC(C)C)NC(=O)[C@H](CCCNC(=N)N)NC(=O)[C@H](CO)NC(=O)[C@H](Cc1c[nH]c2ccccc12)NC(=O)[C@H](CC(=O)O)NC(=O)[C@H](CO)NC(=O)[C@@H](NC(=O)[C@H](Cc1ccccc1)NC(=O)[C@@H](NC(=O)CNC(=O)[C@H](CCC(=O)O)NC(=O)C(C)(C)NC(=O)[C@@H](N)Cc1c[nH]cn1)[C@@H](C)O)[C@@H](C)O)C(=O)N[C@@H](CCC(N)=O)C(=O)N[C@@H](Cc1c[nH]c2ccccc12)C(=O)N[C@@H](CC(C)C)C(=O)N[C@H](C(N)=O)C(C)C
**Q.** For B1, which “pEC50 hSCTR” value [3] is on record?
**A.** 8.2 -log M
